Measurements published in US20080207928A1 (priority 2005, published 2008).
Like-named read-outs stand apart in the source and are kept apart here.

What was measured:
human recombinant CB1 = target: T1, human recombinant CB1 (Homo sapiens, UniProt P21554); experiment: CB1R radioligand binding, membranes from HEK293 cells over-expressing human recombinant CB1
T1 construct: purchased Perkin-Elmer; host or cells: HEK293
Method: (§1) Flavonoid compounds of general formula (I) above were evaluated for their ability to activate Cannabinoid Receptor 1 (CBLR) and Cannabinoid Receptor 2 (CB2R).
CB1R experiments were performed using membranes from HEK293 cells over-expressing human recombinant CB1, as described by the manufacturer (Perkin-Elmer) and using [3H]CP-55,490 as the radioligand.
(§2) Data of active compounds are expressed in Ki (mM) and are means±SEM of n=3 determinations.
(§3) The values that are stated for each of the compounds is an EC50 value. This is defined as the molar concentration of an agonist, which produces 50% of the maximum possible response for that agonist. The values documented are in micromolar units.

human recombinant CB2 = target: T2, human recombinant CB2 (Homo sapiens, UniProt P34972); experiment: CB2R radioligand binding, membranes from HEK293 cells over-expressing human recombinant CB2
T2 construct: purchased Perkin-Elmer; host or cells: HEK293
T2 sequence (P34972 whole entry): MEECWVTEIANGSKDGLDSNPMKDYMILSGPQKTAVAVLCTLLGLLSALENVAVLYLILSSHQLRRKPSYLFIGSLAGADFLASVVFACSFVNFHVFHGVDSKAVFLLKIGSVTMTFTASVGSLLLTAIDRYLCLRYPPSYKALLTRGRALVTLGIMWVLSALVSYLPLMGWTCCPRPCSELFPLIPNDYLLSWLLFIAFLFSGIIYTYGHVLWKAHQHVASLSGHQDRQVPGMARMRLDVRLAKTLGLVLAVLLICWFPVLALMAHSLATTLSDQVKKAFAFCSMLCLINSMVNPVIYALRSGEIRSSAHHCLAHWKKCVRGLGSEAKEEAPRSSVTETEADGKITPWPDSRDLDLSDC
Method: as §1
CB2R experiments were performed using membranes from HEK293 cells over-expressing human recombinant CB2, as described by the manufacturer (Perkin-Elmer), and using [3H]CP-55,495 as the radioligand.
as §2, §3

T1 sequence (P21554 whole entry): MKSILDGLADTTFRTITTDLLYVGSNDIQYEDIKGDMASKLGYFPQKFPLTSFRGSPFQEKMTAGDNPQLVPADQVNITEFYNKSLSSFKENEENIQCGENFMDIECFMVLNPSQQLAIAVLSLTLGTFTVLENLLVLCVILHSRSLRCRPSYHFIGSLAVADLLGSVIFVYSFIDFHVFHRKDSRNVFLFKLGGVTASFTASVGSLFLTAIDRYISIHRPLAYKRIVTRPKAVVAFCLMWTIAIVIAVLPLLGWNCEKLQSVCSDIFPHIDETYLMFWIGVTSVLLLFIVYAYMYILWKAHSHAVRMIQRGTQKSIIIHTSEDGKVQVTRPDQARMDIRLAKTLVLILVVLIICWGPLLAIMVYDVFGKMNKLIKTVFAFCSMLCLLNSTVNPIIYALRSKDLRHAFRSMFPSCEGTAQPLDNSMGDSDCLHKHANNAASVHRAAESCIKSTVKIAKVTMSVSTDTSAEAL

SMILES | EC50 (human recombinant CB1) | EC50 (human recombinant CB2) | EC50 (human recombinant CB1; HEK293 membranes, [3H]CP-55,490 radioligand, means of n=3, read-out: CB1R Activity) | EC50 (human recombinant CB2; HEK293 membranes, [3H]CP-55,495 radioligand, means of n=3, read-out: CB2R Activity) | activation of Cannabinoid Receptor 1 (statement in words) (human recombinant CB1) | activation of Cannabinoid Receptor 2 (statement in words) (human recombinant CB2)
COc1cc(O)c(CC=C(C)C)c2c1C(=O)C[C@@H](c1ccc(O)cc1)O2 [Example 1, 4′, 7-dihydroxy-5-methoxy-8-prenylflavanone] | 7.5 µM | > 25 µM |  |  |  | 
CC(C)=CCc1c(O)cc(O)c2c1O[C@H](c1ccc(O)cc1)CC2=O [Example 2, 4′,5,7-trihydroxy-8-prenylflavanone] | 4.6 µM | > 25 µM |  |  |  | 
O=C1C[C@@H](c2ccccc2)Oc2cc(O)cc(O)c21 [Example 3, 5,7-dihydroxyflavanone] |  |  | > 25 µM | 15.5 µM |  | 
COc1cc(O)c2c(c1)O[C@H](c1ccccc1)CC2=O [Example 4, 5-hydroxy-7-methoxyflavanone] | 0.8 µM | 9.1 µM |  |  | can activate both | can activate both
COc1cc(O)c2c(c1)O[C@H](c1ccc(O)cc1)CC2=O [Example 5, 5,4′-dihydroxy-7-methoxyflavanone] | 3.8 µM | > 25 µM |  |  |  | 
